Results on seven compounds are retold here after PMC9415947 (Pharmaceuticals, 2022).

Where two headings read alike, the source gives them in different places.

In assay [1] the target is T1, PI3Kδ (Homo sapiens, UniProt O00329).
T1 construct: purchased Merck Millipore
The assay can be described thus: In vitro PI3K inhibition assay (ADP-Glo kinase assay), PI3Kδ. The class given is biochemical. Particulars: mean of two independent experiments. Here is the method: (§1) All compounds were tested in a biochemical assay that measured the inhibition of phosphatidylinositol […] production by PI3K isoforms using the ADP-Glo kinase assay (Promega). In addition, the effects of synthesized compounds on B cell proliferation were measured.
(§2) The potency and selectivity of compounds were assessed by measuring the ability of PI3K kinases to convert ATP to ADP during an enzymatic reaction in the presence of decreasing doses of tested compounds. The experiments were carried out using the ADP-Glo kinase assay kit (Promega), according to the manufacturer’s protocol. PI3Kα, PI3Kβ, PI3Kδ, and PI3Kγ have been purchased from Merck Millipore and phosphoinositol-4,5-bisphosphate (PIP2) lipid vesicles with phosphoserine from ThermoFisher Scientific were used as a substrate in the enzymatic reaction.
(§3) After the reaction, the ADP-Glo reagent and the kinase detection reagent were added sequentially with 40 min of incubation (25 °C, 600 rpm) after adding each reagent. Finally, the luminescence intensity was measured and the IC50 was calculated using GraphPad Prism 7 software. The presented results are the mean value of IC50 from at least two independent experiments.
Background: ADP-Glo turns the ADP formed in a reaction into a luminescent signal.

Assay [2] addresses T2, PI3Kα (Homo sapiens, UniProt P42336).
T2 construct: purchased Merck Millipore (methods text)
The assay can be described thus: In vitro PI3K inhibition assay (ADP-Glo kinase assay), PI3Kα. Particulars: for Fold Selectivity α/δ: ratio IC50 PI3Kα / IC50 PI3Kδ. The class given is biochemical. Here is the method: as §1, §2, §3

The next assay concerns the target T3, PI3Kβ (Homo sapiens, UniProt P42338).
T3 construct: purchased Merck Millipore
In words: In vitro PI3K inhibition assay (ADP-Glo kinase assay), PI3Kβ. The class given is biochemical. Particulars: for IC50: mean of two independent experiments; for Fold Selectivity β/δ: ratio IC50 PI3Kβ / IC50 PI3Kδ. Here is the method: as §1, §2, §3

The target in another assay is T4, PI3Kγ (Homo sapiens, UniProt P48736).
T4 construct: purchased Merck Millipore
T4 sequence (P48736 whole entry): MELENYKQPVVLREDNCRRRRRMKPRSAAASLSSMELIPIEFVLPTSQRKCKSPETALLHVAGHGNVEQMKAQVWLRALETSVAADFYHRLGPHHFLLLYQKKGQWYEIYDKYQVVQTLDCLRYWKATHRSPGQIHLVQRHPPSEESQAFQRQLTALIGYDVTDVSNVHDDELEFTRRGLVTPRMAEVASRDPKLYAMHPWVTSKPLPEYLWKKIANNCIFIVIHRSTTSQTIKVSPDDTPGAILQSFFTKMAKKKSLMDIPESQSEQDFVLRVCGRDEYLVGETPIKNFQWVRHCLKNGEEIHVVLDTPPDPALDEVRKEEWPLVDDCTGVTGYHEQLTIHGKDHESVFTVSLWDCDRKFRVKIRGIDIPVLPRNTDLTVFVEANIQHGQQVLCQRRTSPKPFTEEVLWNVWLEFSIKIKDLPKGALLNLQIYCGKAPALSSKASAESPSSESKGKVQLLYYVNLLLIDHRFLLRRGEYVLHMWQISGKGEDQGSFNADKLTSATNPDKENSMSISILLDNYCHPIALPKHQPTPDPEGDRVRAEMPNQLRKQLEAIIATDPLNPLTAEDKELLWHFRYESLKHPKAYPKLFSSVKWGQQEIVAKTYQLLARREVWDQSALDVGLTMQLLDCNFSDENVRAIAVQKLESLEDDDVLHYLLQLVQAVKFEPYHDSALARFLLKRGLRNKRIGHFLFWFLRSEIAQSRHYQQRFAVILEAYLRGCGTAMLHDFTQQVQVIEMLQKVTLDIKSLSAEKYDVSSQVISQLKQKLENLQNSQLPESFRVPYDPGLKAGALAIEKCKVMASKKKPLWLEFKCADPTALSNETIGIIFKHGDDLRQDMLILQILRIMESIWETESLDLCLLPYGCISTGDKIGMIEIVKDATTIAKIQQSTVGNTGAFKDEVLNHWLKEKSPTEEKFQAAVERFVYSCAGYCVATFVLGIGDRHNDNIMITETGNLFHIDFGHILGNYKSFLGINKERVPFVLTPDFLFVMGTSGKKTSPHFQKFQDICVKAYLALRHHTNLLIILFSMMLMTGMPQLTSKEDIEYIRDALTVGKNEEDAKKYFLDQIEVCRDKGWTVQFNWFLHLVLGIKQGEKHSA
In words: In vitro PI3K inhibition assay (ADP-Glo kinase assay), PI3Kγ. The class given is biochemical. Particulars: for IC50: mean of two independent experiments; for Fold Selectivity γ/δ: ratio IC50 PI3Kγ / IC50 PI3Kδ. Here is the method:
as §1, §2, §3

For a further assay, the system named is CD19+ B cells. In words: B cell (CD19+) proliferation assay, CFSE flow cytometry. The class given is cell-based. Particulars: Homo sapiens, 96 h; B cell proliferation, activated by αIgM and ODN2006, 4 days; read-out: IC50 CD19. Here is the method: CD19 cells were isolated from PBMCs using magnetic beads (Stem Cell (Vancouver, Canada)) and then labeled with 2 µM of CFSE (Invitrogen (Waltham, MA, USA)).
After 4 days, cells were stained with LIVE/DEAD™ kit (Invitrogen (Waltham, MA, USA)). Samples were acquired using Attune NxT flow cytometer (Invitrogen) and analyzed using FlowJo software. Each biological assay was performed with cells isolated from a different donor. The presented results constitute the average percentage values of proliferating cells from 3 independent experiments.
Human PBMCs were isolated from buffy coats of healthy donors obtained from the Regional Blood Donation and Blood Medicine Center in Warsaw. Lymphocytes B: CD19+ cells were isolated from PBMCs on magnetic beads (Stem Cell), labeled with 2 µM CFSE (Invitrogen), and seeded on a 96-well plate (1 × 10^5 cells/well). B cells were activated by 2 µg/mL of αIgM (Jackson ImmunoResearch) and 1 µg/mL of ODN2006 (InvivoGen). Cells were incubated with increasing concentrations of compounds (range 0.03–10,000 nM). After 4 days, B cells were stained with LIVE/DEAD™ kit (Invitrogen), acquired using the Attune NxT flow cytometer (Invitrogen), and analyzed using FlowJo10 software. For data normalization, the percentage value of proliferating cells in each sample was divided by the average percentage value of positive control in a single experiment. IC50 values were calculated using a three-parameter dose–response inhibition function in GraphPad Prism.
(In general: In flow cytometry, cells or beads pass a laser one at a time.)

For assay [3], the target named is T1, PI3Kδ. Particulars: cited from earlier work.
Assay [4] concerns the target T1, PI3Kδ. Particulars: cited from earlier work. The source holds these as a separate data set.
Assay [5] concerns the target T2, PI3Kα. Particulars: PI3Kδ versus PI3Kα, in words; cited from earlier work.

T1 sequence (O00329 whole entry, looked up): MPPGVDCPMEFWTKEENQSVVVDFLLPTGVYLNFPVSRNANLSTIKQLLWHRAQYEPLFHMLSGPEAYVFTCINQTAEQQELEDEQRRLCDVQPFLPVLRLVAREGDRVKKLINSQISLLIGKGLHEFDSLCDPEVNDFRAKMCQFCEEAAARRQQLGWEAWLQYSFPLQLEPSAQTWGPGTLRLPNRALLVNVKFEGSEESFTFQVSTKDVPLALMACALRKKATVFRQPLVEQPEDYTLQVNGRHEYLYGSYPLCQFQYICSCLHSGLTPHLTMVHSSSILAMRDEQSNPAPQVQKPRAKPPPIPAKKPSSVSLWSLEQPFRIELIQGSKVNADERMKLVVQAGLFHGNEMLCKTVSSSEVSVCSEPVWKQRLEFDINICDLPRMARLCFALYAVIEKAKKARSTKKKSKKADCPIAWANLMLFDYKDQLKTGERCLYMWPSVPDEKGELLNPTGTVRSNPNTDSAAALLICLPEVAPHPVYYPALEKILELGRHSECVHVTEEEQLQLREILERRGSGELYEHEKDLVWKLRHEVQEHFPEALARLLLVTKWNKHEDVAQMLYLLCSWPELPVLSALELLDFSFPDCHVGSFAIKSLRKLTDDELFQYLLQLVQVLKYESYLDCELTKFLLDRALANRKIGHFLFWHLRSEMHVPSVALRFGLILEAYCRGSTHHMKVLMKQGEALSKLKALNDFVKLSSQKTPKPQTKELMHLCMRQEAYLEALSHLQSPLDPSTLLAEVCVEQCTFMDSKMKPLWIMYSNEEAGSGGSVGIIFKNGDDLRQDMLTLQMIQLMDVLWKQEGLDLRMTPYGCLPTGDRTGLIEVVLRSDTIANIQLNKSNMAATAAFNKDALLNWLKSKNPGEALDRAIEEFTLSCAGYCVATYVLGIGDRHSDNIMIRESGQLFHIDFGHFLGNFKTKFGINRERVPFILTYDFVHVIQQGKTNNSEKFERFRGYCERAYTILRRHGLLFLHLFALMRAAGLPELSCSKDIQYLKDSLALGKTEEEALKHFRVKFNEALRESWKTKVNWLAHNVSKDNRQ
T3 sequence (P42338 whole entry, looked up): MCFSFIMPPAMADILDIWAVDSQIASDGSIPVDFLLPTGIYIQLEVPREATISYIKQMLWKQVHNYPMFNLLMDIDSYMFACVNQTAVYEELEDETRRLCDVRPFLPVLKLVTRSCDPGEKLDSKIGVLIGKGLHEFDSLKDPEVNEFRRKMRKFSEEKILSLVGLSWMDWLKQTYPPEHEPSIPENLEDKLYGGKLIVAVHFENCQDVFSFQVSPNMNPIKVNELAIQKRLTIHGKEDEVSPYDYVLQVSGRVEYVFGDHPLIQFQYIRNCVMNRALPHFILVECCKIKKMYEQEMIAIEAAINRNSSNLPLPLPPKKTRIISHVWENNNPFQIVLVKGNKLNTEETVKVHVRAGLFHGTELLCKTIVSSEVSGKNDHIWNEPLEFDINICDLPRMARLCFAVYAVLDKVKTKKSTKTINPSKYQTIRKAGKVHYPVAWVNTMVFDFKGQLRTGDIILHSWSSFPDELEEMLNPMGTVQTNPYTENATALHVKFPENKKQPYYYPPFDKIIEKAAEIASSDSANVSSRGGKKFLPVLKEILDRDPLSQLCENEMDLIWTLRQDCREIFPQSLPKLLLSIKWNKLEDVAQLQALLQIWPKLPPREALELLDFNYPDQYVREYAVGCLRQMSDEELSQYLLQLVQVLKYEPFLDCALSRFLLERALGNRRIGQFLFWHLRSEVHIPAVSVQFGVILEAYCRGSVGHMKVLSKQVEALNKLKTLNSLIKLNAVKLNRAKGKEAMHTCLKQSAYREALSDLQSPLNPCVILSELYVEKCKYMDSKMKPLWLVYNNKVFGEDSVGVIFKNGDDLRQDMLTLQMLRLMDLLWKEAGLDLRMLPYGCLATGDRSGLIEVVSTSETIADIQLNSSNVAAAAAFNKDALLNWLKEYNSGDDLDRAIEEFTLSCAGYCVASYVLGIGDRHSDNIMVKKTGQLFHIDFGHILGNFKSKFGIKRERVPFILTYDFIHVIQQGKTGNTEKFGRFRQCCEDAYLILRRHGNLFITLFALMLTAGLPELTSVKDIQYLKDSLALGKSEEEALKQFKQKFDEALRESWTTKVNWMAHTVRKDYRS
T2 sequence (P42336 whole entry): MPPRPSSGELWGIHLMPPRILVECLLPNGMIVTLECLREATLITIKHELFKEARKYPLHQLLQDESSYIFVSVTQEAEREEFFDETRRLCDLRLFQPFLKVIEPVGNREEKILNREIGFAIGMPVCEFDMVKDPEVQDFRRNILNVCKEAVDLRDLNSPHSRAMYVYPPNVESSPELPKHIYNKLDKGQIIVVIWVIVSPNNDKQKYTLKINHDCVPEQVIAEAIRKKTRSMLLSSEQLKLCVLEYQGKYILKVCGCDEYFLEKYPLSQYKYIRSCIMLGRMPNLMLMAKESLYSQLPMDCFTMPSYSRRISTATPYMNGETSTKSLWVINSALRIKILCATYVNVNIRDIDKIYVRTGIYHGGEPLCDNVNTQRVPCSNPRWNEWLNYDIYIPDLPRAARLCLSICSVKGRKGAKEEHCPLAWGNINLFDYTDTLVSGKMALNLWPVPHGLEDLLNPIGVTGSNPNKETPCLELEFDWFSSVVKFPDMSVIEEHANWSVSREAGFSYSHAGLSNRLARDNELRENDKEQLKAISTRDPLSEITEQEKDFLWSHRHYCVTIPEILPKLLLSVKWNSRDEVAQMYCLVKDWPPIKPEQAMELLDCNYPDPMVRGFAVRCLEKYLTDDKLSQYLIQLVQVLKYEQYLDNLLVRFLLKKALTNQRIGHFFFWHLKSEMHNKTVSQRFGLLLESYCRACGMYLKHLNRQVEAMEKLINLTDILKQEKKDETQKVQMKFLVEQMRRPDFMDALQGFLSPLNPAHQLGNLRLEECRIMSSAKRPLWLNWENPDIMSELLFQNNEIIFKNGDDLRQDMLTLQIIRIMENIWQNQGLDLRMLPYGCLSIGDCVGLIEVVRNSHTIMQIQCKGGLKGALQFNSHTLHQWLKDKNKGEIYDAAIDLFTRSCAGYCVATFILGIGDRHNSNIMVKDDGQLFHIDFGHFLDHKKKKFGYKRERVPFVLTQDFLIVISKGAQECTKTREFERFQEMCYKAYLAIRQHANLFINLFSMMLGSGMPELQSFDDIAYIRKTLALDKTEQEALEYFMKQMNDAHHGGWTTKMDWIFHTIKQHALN
T2 sequence (P27986 whole entry partner): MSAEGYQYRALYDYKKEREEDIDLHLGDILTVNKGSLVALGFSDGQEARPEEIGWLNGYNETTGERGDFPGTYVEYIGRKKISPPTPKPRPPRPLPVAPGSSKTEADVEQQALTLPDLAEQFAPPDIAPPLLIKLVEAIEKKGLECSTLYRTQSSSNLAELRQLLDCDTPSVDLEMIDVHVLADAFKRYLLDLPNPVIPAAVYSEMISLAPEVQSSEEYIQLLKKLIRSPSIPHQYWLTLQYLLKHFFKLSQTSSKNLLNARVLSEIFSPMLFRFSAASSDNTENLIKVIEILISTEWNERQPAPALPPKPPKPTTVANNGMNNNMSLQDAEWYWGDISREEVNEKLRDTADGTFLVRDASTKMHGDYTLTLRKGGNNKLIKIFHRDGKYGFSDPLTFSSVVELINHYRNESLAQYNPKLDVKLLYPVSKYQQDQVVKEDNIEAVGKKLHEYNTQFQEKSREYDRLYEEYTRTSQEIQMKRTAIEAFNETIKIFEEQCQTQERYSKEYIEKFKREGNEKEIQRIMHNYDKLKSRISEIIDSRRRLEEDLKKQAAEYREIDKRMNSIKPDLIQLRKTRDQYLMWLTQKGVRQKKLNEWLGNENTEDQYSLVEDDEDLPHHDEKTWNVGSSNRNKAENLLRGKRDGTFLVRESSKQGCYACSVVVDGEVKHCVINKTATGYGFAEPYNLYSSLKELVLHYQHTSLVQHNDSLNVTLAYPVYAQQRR

Usually IC50 stands for the midpoint of a concentration-inhibition curve. With `CS(=O)(=O)N1CCN(Cc2cc3nc(-n4c(C(F)F)nc5ccccc54)cc(N4CCOCC4)n3n2)CC1` [Compound 16, 2-(difluoromethyl)-1-{2-[(4-methanesulfonylpiperazin-1-yl)methyl]-7-(morpholin-4-yl)pyrazolo[1,5-a]pyrimidin-5-yl}-1H-1,3-benzimidazole], the IC50 against PI3Kδ [1] turned out to be 43 nM; at PI3Kα [2] it was 44 nM; on PI3Kβ it was 13600 nM; against PI3Kγ, 111 nM; with CD19+ B cells, 114 nM. Also, on PI3Kα [2], the “Fold Selectivity α/δ” value is reported as 1.0. Besides, the “Fold Selectivity β/δ” value on PI3Kβ was determined as 316. In addition, the “Fold Selectivity γ/δ” value on PI3Kγ came to 2.6.

As to `CCc1nc2ccccc2n1-c1cc(N2CCOCC2)n2nc(CN3CCN(C(C)(C)C)CC3)cc2n1` [Compound 7, 1-{2-[(4-tert-butylpiperazin-1-yl)methyl]-7-(morpholin-4-yl)pyrazolo[1,5-a]pyrimidin-5-yl}-2-ethyl-1H-benzimidazole], at PI3Kδ [1], it took 385 nM to reach half-maximal inhibition (IC50). In addition, on PI3Kα [2], the IC50 was 28700 nM and the “Fold Selectivity α/δ” value came to 74. At PI3Kβ, the IC50 was found to be 266000 nM and the “Fold Selectivity β/δ” value amounted to 690. Moreover, on PI3Kγ, the IC50 was 258000 nM and the “Fold Selectivity γ/δ” value stood at 671.

For `CS(=O)(=O)N1CCN(Cc2cc3nc(-c4cccc5[nH]ncc45)nc(N4CCOCC4)c3s2)CC1` [GDC-0941, 2-(1 H -Indazol-4-Yl)-6-(4-Methanesulfonyl-Piperazin-1-Ylmethyl)-4-Morpholin-4-Yl-Thieno [3,2-d]Pyrimidine], the PI3Kγ/δ selectivity result at PI3Kδ [3] is reported as “poor”.

On to `CC(C)(C(N)=O)N1CCN(Cc2cc3nc(-n4c(C(F)F)nc5ccccc54)cc(N4CCOCC4)n3n2)CC1` [Compound 17, 2-[4-({5-[2-(difluoromethyl)-1H-1,3-benzimidazol-1-yl]-7-(morpholin-4-yl)pyrazolo[1,5-a]pyrimidin-2-yl}methyl)piperazin-1-yl]-2-methylpropanamide], for which the IC50 at PI3Kδ [1] came out at 31 nM; at PI3Kα [2], 624 nM; on PI3Kβ, 44800 nM; at PI3Kγ, 2200 nM; in the assay on CD19+ B cells, 52 nM. Besides, on PI3Kα [2], the “Fold Selectivity α/δ” value amounted to 20. The “Fold Selectivity β/δ” value on PI3Kβ was determined as 1444. Also, on PI3Kγ, the “Fold Selectivity γ/δ” value is reported as 71.

In the case of `O=C(C1CC1)N1CCN(Cc2cc3nc(-n4c(C(F)F)nc5ccccc54)cc(N4CCOCC4)n3n2)CC1` [Compound 18], the IC50 on PI3Kδ [1] amounted to 24 nM; against PI3Kα [2], 73 nM; on PI3Kβ, 47400 nM; against PI3Kγ, 156 nM; in the assay on CD19+ B cells it was 58 nM. Besides, the “Fold Selectivity α/δ” value at PI3Kα [2] was 3.0. On PI3Kβ, the “Fold Selectivity β/δ” value is 1973. The “Fold Selectivity γ/δ” value on PI3Kγ was 6.5.

`Cc1cc2nc(-n3c(C(F)F)nc4ccccc43)cc(N3CCOCC3)n2n1` [Compound 1]: on PI3Kδ [4], the half-maximal inhibitory concentration (IC50) is 475 nM. Further, the “selectivity toward the alpha isoform” value at PI3Kα [5] is “poor”.

For `Cc1nc2ccccc2n1-c1cc(N2CCOCC2)n2nc(CN3CCN(C(C)(C)C)CC3)cc2n1` [Compound 5, 1-{2-[(4-tert-butylpiperazin-1-yl)methyl]-7-(morpholin-4-yl)pyrazolo[1,5-a]pyrimidin-5-yl}-2-methyl-1H-benzimidazole], half-maximal inhibition against PI3Kδ [1] (IC50) was put at 236 nM. Moreover, on PI3Kα [2], 10600 nM corresponded to half-maximal inhibition (IC50) and the “Fold Selectivity α/δ” value amounted to 45. For the same compound, at PI3Kβ, the IC50 is 298000 nM and the “Fold Selectivity β/δ” value was found to be 1264. Besides, at PI3Kγ, half-maximal inhibition (IC50) was put at 175000 nM and the “Fold Selectivity γ/δ” value was determined as 742.
